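In this assay, cells in 96-well plates receive the compound at five concentrations for 48 hours. Endpoints are linearly interpolated between the surrounding concentrations. TGI marks complete inhibition of growth.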
Legend:
Assay in all cases: DTP human tumour cell line panel, 48 h
OVCAR-8 ovarian = test system: OVCAR-8 ovarian
A549 NSCLC = test system: A549 NSCLC
MCF7 breast = test system: MCF7 breast
SNB-19 CNS = test system: SNB-19 CNS
HS 578T breast = test system: HS 578T breast
HL-60(TB) leukemia = test system: HL-60(TB) leukemia
SF-539 CNS = test system: SF-539 CNS
T-47D breast = test system: T-47D breast
SN12C renal = test system: SN12C renal
PC-3 prostate = test system: PC-3 prostate
RPMI-8226 leukemia = test system: RPMI-8226 leukemia
UACC-257 melanoma = test system: UACC-257 melanoma
COLO 205 colon = test system: COLO 205 colon
M14 melanoma = test system: M14 melanoma
SK-OV-3 ovarian = test system: SK-OV-3 ovarian
OVCAR-3 ovarian = test system: OVCAR-3 ovarian
HOP-92 NSCLC = test system: HOP-92 NSCLC
SR leukemia = test system: SR leukemia
NCI/ADR-RES ovarian = test system: NCI/ADR-RES ovarian
786-0 renal = test system: 786-0 renal
LOX IMVI melanoma = test system: LOX IMVI melanoma
DU-145 prostate = test system: DU-145 prostate
RXF 393 renal = test system: RXF 393 renal
A498 renal = test system: A498 renal
NCI-H460 lung = test system: NCI-H460 lung
ACHN renal = test system: ACHN renal
NCI-H23 lung = test system: NCI-H23 lung
MDA-MB-231 breast = test system: MDA-MB-231 breast
SW-620 colon = test system: SW-620 colon
OVCAR-4 ovarian = test system: OVCAR-4 ovarian
SF-295 CNS = test system: SF-295 CNS
CAKI-1 renal = test system: CAKI-1 renal
EKVX NSCLC = test system: EKVX NSCLC
UACC-62 melanoma = test system: UACC-62 melanoma
IGROV1 ovarian = test system: IGROV1 ovarian
HT29 colon = test system: HT29 colon
NCI-H522 lung = test system: NCI-H522 lung
KM12 colon = test system: KM12 colon
TK-10 renal = test system: TK-10 renal
SNB-75 CNS = test system: SNB-75 CNS
SK-MEL-5 melanoma = test system: SK-MEL-5 melanoma
U251 CNS = test system: U251 CNS
BT-549 breast = test system: BT-549 breast
MDA-MB-435 = test system: MDA-MB-435
OVCAR-5 ovarian = test system: OVCAR-5 ovarian
MDA-N = test system: MDA-N
CCRF-CEM leukemia = test system: CCRF-CEM leukemia
SK-MEL-2 melanoma = test system: SK-MEL-2 melanoma
HCT-15 colon = test system: HCT-15 colon
HCT-116 colon = test system: HCT-116 colon
MOLT-4 leukemia = test system: MOLT-4 leukemia
SF-268 CNS = test system: SF-268 CNS
NCI-H226 lung = test system: NCI-H226 lung
K-562 leukemia = test system: K-562 leukemia
UO-31 renal = test system: UO-31 renal
HOP-62 NSCLC = test system: HOP-62 NSCLC
HCC-2998 colon = test system: HCC-2998 colon
SK-MEL-28 melanoma = test system: SK-MEL-28 melanoma
MALME-3M melanoma = test system: MALME-3M melanoma

CSc1ncc2c(n1)-c1ccccc1OC2N1CCOCC1 (stereo not given)
TGI (OVCAR-8 ovarian): > 100 µM
TGI (A549 NSCLC): > 100 µM
TGI (MCF7 breast): > 100 µM
TGI (SNB-19 CNS): > 100 µM
TGI (HS 578T breast): > 100 µM
TGI (HL-60(TB) leukemia): 83.9 µM
TGI (SF-539 CNS): > 100 µM
TGI (T-47D breast): 80.3 µM
TGI (SN12C renal): > 100 µM
TGI (PC-3 prostate): > 100 µM
TGI (RPMI-8226 leukemia): > 100 µM
TGI (UACC-257 melanoma): > 100 µM
TGI (COLO 205 colon): > 100 µM
TGI (M14 melanoma): > 100 µM
TGI (SK-OV-3 ovarian): > 100 µM
TGI (OVCAR-3 ovarian): > 100 µM
TGI (HOP-92 NSCLC): > 100 µM
TGI (SR leukemia): > 100 µM
TGI (NCI/ADR-RES ovarian): > 100 µM
TGI (786-0 renal): > 100 µM
TGI (LOX IMVI melanoma): > 100 µM
TGI (DU-145 prostate): > 100 µM
TGI (RXF 393 renal): > 100 µM
TGI (A498 renal): 56.7 µM
TGI (NCI-H460 lung): > 100 µM
TGI (ACHN renal): > 100 µM
TGI (NCI-H23 lung): > 100 µM
TGI (MDA-MB-231 breast): > 100 µM
TGI (SW-620 colon): > 100 µM
TGI (OVCAR-4 ovarian): > 100 µM
TGI (SF-295 CNS): > 100 µM
TGI (CAKI-1 renal): > 100 µM
TGI (EKVX NSCLC): > 100 µM
TGI (UACC-62 melanoma): > 100 µM
TGI (IGROV1 ovarian): > 100 µM
TGI (HT29 colon): > 100 µM
TGI (NCI-H522 lung): > 100 µM
TGI (KM12 colon): > 100 µM
TGI (TK-10 renal): > 100 µM
TGI (SNB-75 CNS): > 100 µM
TGI (SK-MEL-5 melanoma): > 100 µM
TGI (U251 CNS): > 100 µM
TGI (BT-549 breast): > 100 µM
TGI (MDA-MB-435): > 100 µM
TGI (OVCAR-5 ovarian): > 100 µM
TGI (MDA-N): > 100 µM
TGI (CCRF-CEM leukemia): > 100 µM
TGI (SK-MEL-2 melanoma): > 100 µM
TGI (HCT-15 colon): > 100 µM
TGI (HCT-116 colon): > 100 µM
TGI (MOLT-4 leukemia): > 100 µM
TGI (SF-268 CNS): > 100 µM
TGI (NCI-H226 lung): > 100 µM
TGI (K-562 leukemia): > 100 µM
TGI (UO-31 renal): > 100 µM

CCOC(=O)c1c(NS(=O)(=O)c2ccc(C)cc2)sc2c1CCCC2
TGI (OVCAR-8 ovarian): > 100 µM
TGI (A549 NSCLC): > 100 µM
TGI (MCF7 breast): > 100 µM
TGI (SNB-19 CNS): > 100 µM
TGI (HS 578T breast): > 100 µM
TGI (HL-60(TB) leukemia): > 100 µM
TGI (SF-539 CNS): > 100 µM
TGI (T-47D breast): > 100 µM
TGI (SN12C renal): > 100 µM
TGI (PC-3 prostate): > 100 µM
TGI (RPMI-8226 leukemia): 45.9 µM
TGI (UACC-257 melanoma): > 100 µM
TGI (COLO 205 colon): 37.9 µM
TGI (M14 melanoma): > 100 µM
TGI (OVCAR-3 ovarian): 47.5 µM
TGI (NCI/ADR-RES ovarian): > 100 µM
TGI (786-0 renal): > 100 µM
TGI (DU-145 prostate): > 100 µM
TGI (A498 renal): > 100 µM
TGI (NCI-H460 lung): 78.8 µM
TGI (ACHN renal): > 100 µM
TGI (NCI-H23 lung): 54 µM
TGI (MDA-MB-231 breast): 72.8 µM
TGI (SF-295 CNS): > 100 µM
TGI (CAKI-1 renal): > 100 µM
TGI (EKVX NSCLC): 98.7 µM
TGI (HOP-62 NSCLC): 60.2 µM
TGI (UACC-62 melanoma): 56.5 µM
TGI (IGROV1 ovarian): > 100 µM
TGI (HT29 colon): 47.6 µM
TGI (KM12 colon): 93.8 µM
TGI (TK-10 renal): > 100 µM
TGI (SNB-75 CNS): 66.7 µM
TGI (SK-MEL-5 melanoma): > 100 µM
TGI (BT-549 breast): > 100 µM
TGI (OVCAR-5 ovarian): > 100 µM
TGI (MDA-N): > 100 µM
TGI (CCRF-CEM leukemia): > 100 µM
TGI (SK-MEL-2 melanoma): 54.8 µM
TGI (HCT-15 colon): 42.1 µM
TGI (HCT-116 colon): 73 µM
TGI (MOLT-4 leukemia): > 100 µM
TGI (SF-268 CNS): > 100 µM
TGI (NCI-H226 lung): > 100 µM
TGI (K-562 leukemia): > 100 µM
TGI (UO-31 renal): 72.7 µM

COc1cc(C2c3cc4c(cc3OC(NNc3ccccc3)C2C)OCO4)cc(OC)c1OC (stereo not given)
TGI (HCC-2998 colon): 3.96 µM
TGI (OVCAR-8 ovarian): > 38.1 µM
TGI (A549 NSCLC): > 42.3 µM
TGI (MCF7 breast): > 35.7 µM
TGI (SNB-19 CNS): > 31 µM
TGI (HS 578T breast): > 43.4 µM
TGI (HL-60(TB) leukemia): 4.46 µM
TGI (SF-539 CNS): 1.67 µM
TGI (T-47D breast): > 100 µM
TGI (SN12C renal): > 62 µM
TGI (PC-3 prostate): > 56.3 µM
TGI (RPMI-8226 leukemia): 31.8 µM
TGI (UACC-257 melanoma): > 100 µM
TGI (COLO 205 colon): 10.3 µM
TGI (M14 melanoma): 22.7 µM
TGI (SK-OV-3 ovarian): > 100 µM
TGI (OVCAR-3 ovarian): 19.2 µM
TGI (HOP-92 NSCLC): 52.1 µM
TGI (NCI/ADR-RES ovarian): 58.6 µM
TGI (786-0 renal): 12.8 µM
TGI (LOX IMVI melanoma): > 37.8 µM
TGI (DU-145 prostate): > 31.2 µM
TGI (RXF 393 renal): > 94.3 µM
TGI (A498 renal): 6.76 µM
TGI (NCI-H460 lung): 16.4 µM
TGI (ACHN renal): 27.5 µM
TGI (NCI-H23 lung): > 100 µM
TGI (SK-MEL-28 melanoma): > 100 µM
TGI (MDA-MB-231 breast): > 63.4 µM
TGI (SW-620 colon): > 100 µM
TGI (OVCAR-4 ovarian): > 100 µM
TGI (SF-295 CNS): 5.11 µM
TGI (CAKI-1 renal): > 73 µM
TGI (EKVX NSCLC): 21.1 µM
TGI (HOP-62 NSCLC): 10.4 µM
TGI (UACC-62 melanoma): > 43.5 µM
TGI (IGROV1 ovarian): > 100 µM
TGI (HT29 colon): 6.61 µM
TGI (NCI-H522 lung): 4.72 µM
TGI (KM12 colon): 38 µM
TGI (TK-10 renal): 31.8 µM
TGI (SNB-75 CNS): > 62.7 µM
TGI (SK-MEL-5 melanoma): 21 µM
TGI (U251 CNS): 13.2 µM
TGI (BT-549 breast): 33.4 µM
TGI (MDA-MB-435): 1.31 µM
TGI (OVCAR-5 ovarian): > 81 µM
TGI (MDA-N): 3.43 µM
TGI (CCRF-CEM leukemia): > 27.3 µM
TGI (SK-MEL-2 melanoma): 38.6 µM
TGI (HCT-116 colon): 13.9 µM
TGI (MALME-3M melanoma): > 38.5 µM
TGI (MOLT-4 leukemia): > 47.3 µM
TGI (SF-268 CNS): 38.1 µM
TGI (NCI-H226 lung): 6.92 µM
TGI (K-562 leukemia): > 32.1 µM
TGI (UO-31 renal): 6.79 µM

O=Cc1cccc2ccc3ccccc3c12
TGI (HCC-2998 colon): 94 µM
TGI (OVCAR-8 ovarian): > 100 µM
TGI (A549 NSCLC): 85.3 µM
TGI (MCF7 breast): 37.4 µM
TGI (SNB-19 CNS): 65.5 µM
TGI (HS 578T breast): 54.7 µM
TGI (SF-539 CNS): 23 µM
TGI (T-47D breast): 92.4 µM
TGI (SN12C renal): 88.5 µM
TGI (PC-3 prostate): 55.5 µM
TGI (UACC-257 melanoma): > 100 µM
TGI (COLO 205 colon): 37.5 µM
TGI (M14 melanoma): 49.4 µM
TGI (SK-OV-3 ovarian): 46.5 µM
TGI (OVCAR-3 ovarian): 40.4 µM
TGI (NCI/ADR-RES ovarian): 38.3 µM
TGI (786-0 renal): 53.5 µM
TGI (LOX IMVI melanoma): 45.9 µM
TGI (DU-145 prostate): > 100 µM
TGI (RXF 393 renal): 61 µM
TGI (A498 renal): 62.7 µM
TGI (NCI-H460 lung): 57.8 µM
TGI (ACHN renal): 83.8 µM
TGI (NCI-H23 lung): 66.5 µM
TGI (MDA-MB-231 breast): 77.3 µM
TGI (SW-620 colon): 74.3 µM
TGI (SF-295 CNS): 50.2 µM
TGI (CAKI-1 renal): 46.5 µM
TGI (HOP-62 NSCLC): 52.4 µM
TGI (UACC-62 melanoma): 76 µM
TGI (HT29 colon): 54.2 µM
TGI (NCI-H522 lung): 52 µM
TGI (KM12 colon): 25.4 µM
TGI (TK-10 renal): 40.2 µM
TGI (SNB-75 CNS): 43.6 µM
TGI (SK-MEL-5 melanoma): 39.6 µM
TGI (U251 CNS): 58.7 µM
TGI (BT-549 breast): 96.9 µM
TGI (MDA-MB-435): 49.6 µM
TGI (MDA-N): 73.2 µM
TGI (SK-MEL-2 melanoma): 38 µM
TGI (HCT-15 colon): > 100 µM
TGI (HCT-116 colon): 39.4 µM
TGI (MALME-3M melanoma): 49.7 µM
TGI (SF-268 CNS): 43.1 µM
TGI (NCI-H226 lung): 74.8 µM
TGI (UO-31 renal): > 100 µM
